For test [1], the system named is pentosidine formation. Briefly: Inhibitory effect on AGEs (pentosidine) formation in serum of renal failure patients. The class given is biochemical, human. The note with it: final concentration 5 mM, 1 week at 37° C.; for Pentosidine Formation Ratio (%): control as 100%; for AGE Formation Inhibition Ratio (%): determined from the pentosidine formation ratio. As for the experimental part: To 450 μl of protein (serum of renal failure patients with an informed consent) was added 50 μl of a solution of each test compound in dimethylsulfoxide (final concentration: 5 mM), and the resulting mixture was incubated for 1 week at 37° C. The quantity of pentosidine, which is one of the AGEs formed, was subsequently measured as follows.
First, in order to release the pentosidine formed in the protein, 50 μl of 10% trichloroacetic acid was added to 50 μl of the reacted sample, and the mixture was centrifuged to precipitate the protein that was then collected. The collected protein was washed with 300 μl of 5% trichloroacetic acid and dried; 100 μl of 6 N hydrochloric acid was subsequently added, and hydrolysis was performed for 16 hours at 110° C. The quantity of pentosidine (nmol/l) formed was measured by HPLC using a fluorescence detector (ODS C18, 4.6×250 mm, 335 nm, 385 nm), according to a gradient method (30 minutes, 1.0 ml/min) using a mobile phase of distilled water containing 0.1% trifluoroacetic acid/80% acetonitrile containing 0.08% trifluoroacetic acid (Miyata, T et al.,: J. Am. Soc., Nephrol., 7, 1198-1206, 1996; Miyata, T., et al., Proc. Natl. Acad. Sci., USA, 93 2353-2358, 1996).
In order to evaluate the inhibitory effect of each test compound on AGE formation, the proportion of the quantity of pentosidine formed was calculated as the ratio (%) of pentosidine formation relative to the quantity of pentosidine formed with a control as 100%. Further, from the calculated value, the ratio of inhibition of pentosidine formation (the ratio (%) of inhibition of AGE formation) was also determined.

Test [2] relates to pentosidine formation. Briefly: Inhibitory effect on pentosidine formation in plasma of hemodialysis patients. The note with it: final concentrations 0.8, 2.0, and 5.0 mM, 1 week at 37° C., FIG. 13. The test is classed as biochemical, human. As for the experimental part: (§1) Plasma was collected from hemodialysis patients prior to dialysis with the patients' consent, and the plasma was filtered and sterilized. To the plasma (450 μL) was added solutions of TM-2002 in dimethylsulfoxide (50 μL) (final concentrations: 0.8, 2.0, and 5.0 mM), and the mixtures were incubated for 1 week at 37° C. The levels of the pentosidine formation were measured.
Pentosidine was measured as follows. To each sample (50 μL) after incubation was added an equal volume of 10% trichloroacetic acid, and the mixture was subsequently centrifuged at 5,000 g for 5 minutes. After the supernatant was removed, the pellet was washed with 5% trichloroacetic acid (300 μL). […] The concentration of the released pentosidine was measured by reverse-phase HPLC using a fluorescence detector (RF-10A, Shimadzu Corporation) (Miyata, T. et al.; Proc. Natl. Acad. Sci. USA, Vol. 93, p. 2353-2358, 1996). The effluent was monitored at the excitation/emission wavelength of 335/385 nm. […]
The inhibitory effect was evaluated by comparison with a positive control (pyridoxamine (Sigma)), which was reacted in the same manner as Compound TM-2002. […] The results (the quantities of pentosidine: nmol/ml) are shown in FIG. 13, wherein the “control” hereinbelow means a negative control using only the solvent.

Test [3] concerns pentosidine formation. In words: Inhibitory activity on pentosidine formation, samples incubated with BSA and arabinose. The class given is biochemical. The following applies: 5 mM drug; incubated with BSA and arabinose instead of patient plasma. As for the experimental part: as §1
Pentosidine was measured as follows. To each sample (50 μL) after incubation was added an equal volume of 10% trichloroacetic acid, and the mixture was subsequently centrifuged at 5,000 g for 5 minutes. After the supernatant was removed, the pellet was washed with 5% trichloroacetic acid (300 μL). The pellet was dried under reduced pressure, and subsequently hydrolyzed in a 6N HCl solution (100 μL) under a nitrogen atmosphere for 16 hours at 110° C. To the acid hydrolysate was then added 5N NaOH (100 μL) and 0.5 M phosphate buffer (pH 7.4) (200 μL); the mixture was subsequently filtered through a micropore filter with 0.5 μm pores and diluted with PBS. The concentration of the released pentosidine was measured by reverse-phase HPLC using a fluorescence detector (RF-10A, Shimadzu Corporation) (Miyata, T. et al.; Proc. Natl. Acad. Sci. USA, Vol. 93, p. 2353-2358, 1996). The effluent was monitored at the excitation/emission wavelength of 335/385 nm. Synthetic pentosidine was used as the reference material. The detection limit of pentosidine was 0.1 pmol/mg protein.
(2) Other edaravone analogues (Compounds (1) or (2)) were investigated for their inhibitory activities on pentosidine formation in the same manner as in Section (1) above, except that the samples were incubated with BSA and arabinose instead of the patient plasma. In the tables, “-” means that the test was not conducted.

For the compound `C/C(=N\O)C1C(=O)N(c2ccccc2)N=C1c1ccccc1` (stereo not drawn) [(16)], in test [1], the “Pentosidine Formation Ratio (%)” value came to 25.8% and the “AGE Formation Inhibition Ratio (%)” value is reported as 74.2%. Taken in the same sequence, the figures for `CCCC1=NN(c2ccccc2)C(=O)C1CC(=O)c1ccccc1` (stereo not drawn) [(20)] were 12.4% and 87.6%. For `Cc1ncc2c(c1O)C(c1c(C)nn(-c3ccccc3)c1O)OC2` (stereo not drawn) [No. 68, 1-(5-hydroxy-3-methyl-1-phenyl-1H-pyrazol-4-yl)-6-methyl-1,3-dihydro-furo[3,4-c]pyridin-7-ol], in test [2], the “inhibition of pentosidine formation compared to pyridoxamine (positive control)” value is recorded as “significantly inhibits the pentosidine formation as compared to pyridoxamine”. On to `NC1=NN(c2ccccc2)C(=O)C1C(=O)C(=O)Nc1nccs1` (stereo not drawn) [(2)], for which, in test [1], the “Pentosidine Formation Ratio (%)” value is recorded as 26.1% and the “AGE Formation Inhibition Ratio (%)” value is 73.9%. As to `CC1=NN(c2ccccc2)C(=O)C1CCC(=O)O` (stereo not drawn) [(7)], in test [1], the “Pentosidine Formation Ratio (%)” value stood at 27.2% and the “AGE Formation Inhibition Ratio (%)” value is 72.8%. In the case of `CC1=NN(c2ccccc2)C(=O)C1C(c1ccccc1)c1c(C)nn(-c2ccccc2)c1O` (stereo not drawn) [(9)], in test [1], the “Pentosidine Formation Ratio (%)” value was determined as 30.8% and the “AGE Formation Inhibition Ratio (%)” value is 69.2%. As for `CC1=NN(c2ccc(N)cc2)C(=O)C1CCO` (stereo not drawn) [(5)], in test [1], the “Pentosidine Formation Ratio (%)” value was 9.33% and the “AGE Formation Inhibition Ratio (%)” value came out at 90.67%. In the same order, the values of `NC1=NN(c2ccccc2)C(=O)C1Sc1nnnn1-c1ccccc1` (stereo not drawn) [(6)] are 16.8% and 83.2%.

As to `NC1=NN(c2ccccc2)C(=O)C1C(=O)C(=O)Nc1ccccc1` (stereo not drawn) [(1)], in test [1], the “Pentosidine Formation Ratio (%)” value stood at 18.1% and the “AGE Formation Inhibition Ratio (%)” value came to 81.9%. Taken in the same sequence, the figures for `O=C(NC1=NN(c2ccccc2)C(=O)C1Sc1nnnn1-c1ccccc1)c1ccccc1` (stereo not drawn) [(14)] were 22.1% and 77.9%. In the same order, the values of `CC1=NN(c2ccccc2)C(=O)C1C1C(=O)N(c2ccccc2)N=C1C` (stereo not drawn) [(17)] are 35.0% and 65.0%. For `CC1=NN(c2ccccc2)C(=O)C1NS(=O)(=O)c1ccc(C)cc1` (stereo not drawn) [(11)], in test [1], the “Pentosidine Formation Ratio (%)” value came to 24.9% and the “AGE Formation Inhibition Ratio (%)” value is 75.1%. For `CC1=NN(c2ccccc2)C(=O)C1C(c1ccccc1)c1c(C)nn(-c2ccccc2)c1O` (stereo not drawn) [compound 9, 4-[(5-hydroxy-3-methyl-1-phenyl-1H-pyrazol-4-yl)-phenyl-methyl]-5-methyl-2-phenyl-2,4-dihydro-pyrazol-3-one], the “Pentosidine Formation Ratio (%) at 5 mM Drug Concentration” value in test [3] stood at 7.52%. Still for that read-out and setting: then `CC1=NN(c2ccc(Cl)cc2)C(=O)/C1=C/c1ccc(O)cc1O` [compound 42, 2-(4-chloro-phenyl)-4-(2,4-dihydroxy-benzylidene)-5-methyl-2,4-dihydro-pyrazol-3-one], with 68.32%; and `CN(C)c1ccc(/C=C2\C(=O)N(c3ccc(S(N)(=O)=O)cc3)N=C2C(F)(F)F)cc1` [compound 51, 4-[4-(4-dimethylamino-benzyliden)-5-oxo-3-trifluoromethyl-4,5-dihydro-pyrazol-1-yl]-benzenesulfonamide], with 41.68%. With `CC1=NN(c2cccc([N+](=O)[O-])c2)C(=O)C1Sc1nnnn1-c1ccccc1` (stereo not drawn) [(13)], in test [1], the “Pentosidine Formation Ratio (%)” value came out at 45.4% and the “AGE Formation Inhibition Ratio (%)” value stood at 54.6%. As to `CCC1C(=O)N(c2ccc(Cl)cc2)N=C1C` (stereo not drawn) [(18)], in test [1], the “Pentosidine Formation Ratio (%)” value came out at 18.0% and the “AGE Formation Inhibition Ratio (%)” value amounted to 82.0%. With `CC1=NN(c2ccc(Cl)cc2)C(=O)/C1=C/c1cccc(O)c1` [compound 43, 2-(4-chloro-phenyl)-4-(3-hydroxy-benzylidene)-5-methyl-2,4-dihydropyrazol-3-one], in test [3], the “Pentosidine Formation Ratio (%) at 5 mM Drug Concentration” value was determined as 3.00%. For `O=C1C2CCCC2=NN1c1ccccc1` (stereo not drawn) [(10)], in test [1], the “Pentosidine Formation Ratio (%)” value is given as 18.0% and the “AGE Formation Inhibition Ratio (%)” value is 82.0%. `CC(=O)NC1C(=O)N(c2ccccc2)N=C1C` (stereo not drawn) [(8)]: in test [1], the “Pentosidine Formation Ratio (%)” value is listed as 23.5% and the “AGE Formation Inhibition Ratio (%)” value is on record as 76.5%. With `CC1=NN(c2ccccc2)C(=O)C1C1C(=O)N(c2ccccc2)N=C1C` (stereo not drawn) [compound 17, 5,5′-dimethyl-2,2′-diphenyl-2,4,2′,4′-tetrahydro [4,4′]bipyrazole-3,3′-dione], the “Pentosidine Formation Ratio (%) at 5 mM Drug Concentration” value in test [3] is 60.96%.

The record behind these values is US20120065198A2, “Detection and Treatment of Schizophrenia” (Tokai University Educational System, priority 2007, published 2012).
